What was measured:
[1] = test system: Pseudomonas Aeruginosa ATCC.35422; experiment: Antibacterial activity, diffusion method in agar-germs (2.a); format: cell-based
Method: (§1) In a Tryprone Soy Agar diffusion medium ATCC (American Type Culture Collection) standard bacterial strains are inoculated, preparing a final solution of 10^6 cfu/g (colony forming unities) of the following strains:
(§2) Every plate contains 20 ml of a medium where 2 equidistant wells having a standard diameter are Formed and in each of these wells […] of the above described bacterial solution are inoculated. 2 plates are prepared for every couple of compounds to be tested at different concentrations, and For every strain, and each of these plates is compared with a white (sterile demineralized water inoculum). After the inoculum, the plates are placed in the refrigerator to favour diffusion and temporaneously blocking bacterial growth.
(§3) The compounds hexadecyltrimethylammonium traumatate and benzyldimethylhexadecylammonium traumatare respectively versus hexadecyl trimethylammonium bromide and benzyldimethylhexadecylammonium chloride are solubilized in demineralized water to Form solutions at the concentrations: 0.1; 0.5; and 1%.
(§4) The antibacterial effect is evaluated by measuring bacterial diffusion halo around the well vs white (halo absence).

PS Maltophila ATCC.13637 = experiment: as above; format: cell-based
Method: as §1, §2, §3, §4

E. Coli ATCC.35218 = experiment: as above; format: cell-based
Method: as §1, §2, §3, §4

[2] = Physical chemical characteristics: solubility in water and organic solvents
C.albicans ATCC 10231 = experiment: Evaluation of bacteriostatic minimal concentration (BMC); format: cell-based; conditions: Table 2.b)6; test concentrations given in μg/ml
Method: (§5) 1. Culture Medium: Tryprone Soy Broth (TBS) - Biogenetics
(§6) Microbic standard strains from American Type Culture Collection (ATCC) were used, chosen among aerobic Gram positive and negative as follows:
(§7) The broths culture of the different species are prepared growing the standard strain (kept in Tryptic Soy Agar (TSA) slent at 5° C.) in Tryptone Soy Broth (TSB) for 12 hours at 37° C. 10 ml are then taken up from each culture, centrifugated for 3 times at 3500 PM washing each time the sediment using 10 ml of sterile saline solution. The sediment is resuspended in the saline solution until obtainment of a turbidity corresponding to the Mc Farland standard solution (the suspension title must be […] UFC/ml).
(§8) The compounds, dissolved as stock solution, were added to test tubes containing 5 ml TBS in order to obtain the desired Final concentration 10000; 5000; 1000; 200; 40; 2; 0.4; 0.05 μg/ml (culture medium maximal dilution=1/10).
(§9) 50 μl of bacterial suspension are added to the tube containing the compounds to be tested and incubated at 37° C.: the densitometric determination is made in comparison with Mc Farland standard solution 24 and 48 hours later.
(§10) After the incubation time the suspensions ape gently agitated; 50 μl of each suspension are inoculated in tubes containing […] of TSB and incubated at 37° C.; the densitometric determination is made 48 hours later.
(§11) BMC is defined by comparison between the two densitometric evaluation.

St.aureus ATCC 65380 = experiment: as above; format: cell-based; conditions: Table 2.b)2; test concentrations given in μg/ml
Method: as §5, §6, §7, §8, §9, §10, §11

Ps.aeruginosa ATCC 35422 = experiment: as above; format: cell-based; conditions: Table 2.b)1; test concentrations given in μg/ml
Method: as §5, §6, §7, §8, §9, §10, §11

B.subtilis ATCC 6633 = experiment: as above; format: cell-based; conditions: Table 2.b)5; test concentrations given in μg/ml
Method: as §5, §6, §7, §8, §9, §10, §11

[3] = test system: St.epidermidis ATCC 14990; experiment: as above; format: cell-based; conditions: Table 2.b)4; test concentrations given in μg/ml
Method: as §5, §6, §7, §8, §9, §10, §11

[4] = test system: standard bacterial strains; experiment: Antibacterial activity, diffusion method in agar-germs, all strains (2.a); format: cell-based; conditions: versus hexadecyltrimethylammonium bromide and benzyldimethylhexadecylammonium chloride; in words
Method: as §1, §2, §3, §4

E.coli ATCC 35218 = experiment: microbe, parasite or virus in culture; format: cell-based; conditions: Table 2.b)3; test concentrations given in μg/ml
Method: as §5, §6, §7, §8, §9, §10, §11

[5] = test system: Candida Albicans ATCC.10231; experiment: Antibacterial activity, diffusion method in agar-germs (2.a); format: cell-based; parameters: unit not given here
Method: as §1, §2, §3, §4

[6] = test system: Aspergillus Niger ATCC 16404; experiment: as above; format: cell-based; parameters: unit not given here
Method: as §1, §2, §3, §4

PS Cepacia ATCC.25416 = experiment: as above; format: cell-based; parameters: unit not given here
Method: as §1, §2, §3, §4

[7] = test system: Streptococcus Fecalis ATCC.291212; experiment: as above; format: cell-based; parameters: unit not given here
Method: as §1, §2, §3, §4

[8] = test system: Stafilococcus Epidermidis ATCC.14990; experiment: as above; format: cell-based; parameters: unit not given here
Method: as §1, §2, §3, §4

[9] = test system: Stafilococcus Aureus ATCC.65380; experiment: as above; format: cell-based; parameters: unit not given here
Method: as §1, §2, §3, §4

3T3 fibroblasts = experiment: Cellular proliferation of 3T3 fibroblasts, neutral red colorimetry (1.1a); format: cell-based, Mice
Method: Experiments on 3T3 fibroblasts
Mice 3T3 fibroblasts cultures sown at a 40.000/ml concentration on plates having 6 wells in a DMEM culture medium enriched with 10% calf serum are used. After 24 hours culture, the 90 prepared wells are divided in order to allow the analyses of the compounds of the invention, every compound to be tested being used respectively at a concentration of 0.1, 1 and 10 μg/ml by subsequent evaluations after 48 and 72 hours of incubation.
Hexadecyltrimethylammoniun (ETA) traumatare: solubilized in water and brought to the desired final concentrations of 0.1. 1 and 10 μg/ml by progressive dilutions;
Ethanolamine traumatate: solubilized in water and brought to the final concentrations of 0.1, 1 and 10 μg/ml by progressive dilutions;
Traumatic acid: neutralized with sodium hydroxyde and solubilized in water, then brought to the final concentrations of 0.1, 1 and 10 μg/ml by progressive dilutions with the culture medium.
The compounds are added to the cells after 24 hours culture. The cells number is measured by colorimetry with the neutral red intravital stain after 24, 48, 72 hours of incubation.

benzylmethylhexadecylammonium trans-traumatate
bacterial diffusion halo ([1]; sol. 0.1%): n.h.
bacterial diffusion halo ([1]; sol. 0.5%): 12
bacterial diffusion halo ([1]; sol. 1%): 14
bacterial diffusion halo (PS Maltophila ATCC.13637; sol. 0.1%): n.h.
bacterial diffusion halo (PS Maltophila ATCC.13637; sol. 0.5%): n.h.
bacterial diffusion halo (PS Maltophila ATCC.13637; sol. 1%): 15
bacterial diffusion halo (E. Coli ATCC.35218; sol. 0.1%): n.h.
bacterial diffusion halo (E. Coli ATCC.35218; sol. 0.5%): n.h.
bacterial diffusion halo (E. Coli ATCC.35218; sol. 1%): 13
organic solvent solubility ([2]; in ethanol): > 20 mg/mL
solubility in water ([2]; water): > 10 mg/mL
MINIMAL BACTERIAL CONCENTRATION (C.albicans ATCC 10231): 2.00
MINIMAL BACTERIAL CONCENTRATION (St.aureus ATCC 65380): 1,000.00
MINIMAL BACTERIAL CONCENTRATION (Ps.aeruginosa ATCC 35422): 10,000.00
MINIMAL BACTERIAL CONCENTRATION (B.subtilis ATCC 6633): 1,000.00
MINIMAL BACTERIAL CONCENTRATION [3]: 2.00
antibacterial and bacteriostatic activity profile [4]: antibacterial and bacteriostatic activity profile comparable to that of the comparison products
MINIMAL BACTERIAL CONCENTRATION (E.coli ATCC 35218): 200.00
bacterial diffusion halo ([5]; sol. 0.1%): 13
bacterial diffusion halo ([5]; sol. 0.5%): 15
bacterial diffusion halo ([5]; sol. 1%): 16
bacterial diffusion halo ([6]; sol. 0.1%): 12
bacterial diffusion halo ([6]; sol. 0.5%): 16
bacterial diffusion halo ([6]; sol. 1%): 19
bacterial diffusion halo (PS Cepacia ATCC.25416; sol. 0.1%): 12
bacterial diffusion halo (PS Cepacia ATCC.25416; sol. 0.5%): 15
bacterial diffusion halo (PS Cepacia ATCC.25416; sol. 1%): 15
bacterial diffusion halo ([7]; sol. 0.1%): 12
bacterial diffusion halo ([7]; sol. 0.5%): 14
bacterial diffusion halo ([7]; sol. 1%): 15
bacterial diffusion halo ([8]; sol. 0.1%): 15
bacterial diffusion halo ([8]; sol. 0.5%): 17
bacterial diffusion halo ([8]; sol. 1%): 19
bacterial diffusion halo ([9]; sol. 0.1%): 17
bacterial diffusion halo ([9]; sol. 0.5%): 22
bacterial diffusion halo ([9]; sol. 1%): 22

hexadecyltrimethylammonium trans-traumatate [Hexadecyltrimethyl Ammonium Traumatate]
bacterial diffusion halo ([1]; sol. 0.1%): n.h.
bacterial diffusion halo ([1]; sol. 0.5%): n.h.
bacterial diffusion halo ([1]; sol. 1%): n.h.
bacterial diffusion halo (PS Maltophila ATCC.13637; sol. 0.1%): n.h.
bacterial diffusion halo (PS Maltophila ATCC.13637; sol. 0.5%): 15
bacterial diffusion halo (PS Maltophila ATCC.13637; sol. 1%): 21
bacterial diffusion halo (E. Coli ATCC.35218; sol. 0.1%): n.h.
bacterial diffusion halo (E. Coli ATCC.35218; sol. 0.5%): 13
bacterial diffusion halo (E. Coli ATCC.35218; sol. 1%): 15
effect on cells proliferation (3T3 fibroblasts; 0.1 μg/ml, in words): able to affect cells proliferation according to a not statistically significant trend
effect on cellular proliferation (3T3 fibroblasts; 1 μg/ml, in words, ETA salt > ethanolamine salt = traumatic acid): able to increase cellular proliferation
cells numeration (colorimetric, neutral red) (3T3 fibroblasts; 24 hours of incubation, 0.1 (head: μg/ml), control 0.579 ± 0.021): 0.575 ± 0.041
cells numeration (colorimetric, neutral red) (3T3 fibroblasts; 24 hours of incubation, 1.0 (head: μg/ml), control 0.579 ± 0.021): 0.619 ± 0.033
cells numeration (colorimetric, neutral red) (3T3 fibroblasts; 24 hours of incubation, 10.0 (head: μg/ml), control 0.579 ± 0.021): 0.491 ± 0.021
cells numeration (colorimetric, neutral red) (3T3 fibroblasts; 48 hours of incubation, 0.1 (head: μg/ml), control 1.334 ± 0.050): 1.553 ± 0.061
cells numeration (colorimetric, neutral red) (3T3 fibroblasts; 48 hours of incubation, 1.0 (head: μg/ml), control 1.334 ± 0.050): 1.501 ± 0.081
cells numeration (colorimetric, neutral red) (3T3 fibroblasts; 48 hours of incubation, 10.0 (head: μg/ml), control 1.334 ± 0.050, ** p < 0.01 significant reduction): 0.842 ± 0.078
cells numeration (colorimetric, neutral red) (3T3 fibroblasts; 72 hours of incubation, 0.1 (head: μg/ml), control 2.360 ± 0.125): 2.501 ± 0.131
cells numeration (colorimetric, neutral red) (3T3 fibroblasts; 72 hours of incubation, 1.0 (head: μg/ml), control 2.360 ± 0.125): 2.503 ± 0.100
cells numeration (colorimetric, neutral red) (3T3 fibroblasts; 72 hours of incubation, 10.0 (head: μg/ml), control 2.360 ± 0.125, ** p < 0.01 significant reduction): 1.385 ± 1.63
time necessary for the cells to reach the confluence (3T3 fibroblasts; side control experiment, ETA and ethanolamine salts > traumatic acid): reduce the time normally necessary for the cells to reach the confluence
MINIMAL BACTERIAL CONCENTRATION (C.albicans ATCC 10231): 2.00
MINIMAL BACTERIAL CONCENTRATION (St.aureus ATCC 65380): 1,000.00
MINIMAL BACTERIAL CONCENTRATION (Ps.aeruginosa ATCC 35422): > 10,000
MINIMAL BACTERIAL CONCENTRATION (B.subtilis ATCC 6633): 2.00
MINIMAL BACTERIAL CONCENTRATION [3]: 8.00
antibacterial and bacteriostatic activity profile [4]: antibacterial and bacteriostatic activity profile comparable to that of the comparison products
MINIMAL BACTERIAL CONCENTRATION (E.coli ATCC 35218): 200.00
bacterial diffusion halo ([5]; sol. 0.1%): 19
bacterial diffusion halo ([5]; sol. 0.5%): 24
bacterial diffusion halo ([5]; sol. 1%): 25
bacterial diffusion halo ([6]; sol. 0.1%): 19
bacterial diffusion halo ([6]; sol. 0.5%): 22
bacterial diffusion halo ([6]; sol. 1%): 22
bacterial diffusion halo (PS Cepacia ATCC.25416; sol. 0.1%): 18
bacterial diffusion halo (PS Cepacia ATCC.25416; sol. 0.5%): 19
bacterial diffusion halo (PS Cepacia ATCC.25416; sol. 1%): 22
bacterial diffusion halo ([7]; sol. 0.1%): 20
bacterial diffusion halo ([7]; sol. 0.5%): 22
bacterial diffusion halo ([7]; sol. 1%): 22
bacterial diffusion halo ([8]; sol. 0.1%): 20
bacterial diffusion halo ([8]; sol. 0.5%): 22
bacterial diffusion halo ([8]; sol. 1%): 22
bacterial diffusion halo ([9]; sol. 0.1%): 21
bacterial diffusion halo ([9]; sol. 0.5%): 24
bacterial diffusion halo ([9]; sol. 1%): 24

Reference: patent publication US5567716A, “Trans and cis traumatic acid salts having cicatrizant activity associated to bacteriostatic, antiviral, antibiotic or antifungal activity” (priority 1992, dated 1996)
